# Results as given in patent US20210317099A1, “SAFER, POTENT, AND FAST ACTING ANTIMICROBIAL AGENTS” (Purdue Research Foundation, priority 2020, published 2021).
# Read-outs that look alike come from different tables or passages of the source.
# How the values were obtained:
# Assay type in all cases: cell-based
# [1] = tested on: MRSA NRS 386; assay: MIC, Gram-positive panel; conditions: Staphylococcus aureus; MRSA NRS 386; read-out: MIC
# Procedure: (§1) Next, the spectrum of antibacterial activity of compounds 144, 148, 149, 151, 155, 158, and 187 was examined against a panel of clinically relevant Gram-positive bacterial pathogens including methicillin-resistant Staphylococcus aureus (MRSA), vancomycin-resistant Staphylococcus aureus (VRSA), vancomycin-resistant Enterococcus faecalis and Enterococcus faecium (VRE), and Streptococcus pneumoniae. Bacterial strains were grown aerobically overnight on tryptone soya agar plates at 37° C. Afterwards, a bacterial solution equivalent to 0.5 McFarland standard was prepared and diluted in cation-adjusted Mueller-Hinton broth (CAMHB) (for staphylococci). Enterococci and Streptococci were diluted in tryptone soya broth (TSB) to achieve a bacterial concentration of about 5×10^5 CFU/mL and seeded in 96-well plates. Compounds and control drugs were added in the first row of 96-well plates and serially diluted with media containing bacteria. Plates were then, incubated aerobically at 37° C. for 18-20 hours (except for S. pneumoniae, which was incubated at 37° C. in presence of 5% CO2 for 18-20 hours).
# [2] = tested on: S. aureus ATCC 6538; assay: MIC, Gram-positive panel; conditions: Staphylococcus aureus, ATCC6538; S. aureus ATCC 6538; read-out: MIC
# Procedure: as §1
# [3] = tested on: Methicillin-resistant S. epidermidis NRS101; assay: MIC, Gram-positive panel; conditions: Staphylococcus epidermidis; Methicillin-resistant S. epidermidis NRS101; read-out: MIC
# Procedure: as §1
# [4] = tested on: Enterococcus faecalis ATCC 51299 (VRE); assay: MIC, Gram-positive panel; conditions: Enterococcus faecalis ATCC 51299 (VRE); read-out: MIC
# Procedure: as §1
# [5] = tested on: Methicillin-resistant S. pneumoniae ATCC 700677; assay: MIC, Gram-positive panel; conditions: Streptococcus pneumoniae, ATCC700677; Methicillin-resistant S. pneumoniae ATCC 700677; read-out: MIC
# Procedure: as §1
# [6] = tested on: VRSA 12; assay: MIC, Gram-positive panel; conditions: Staphylococcus aureus; VRSA 12; read-out: MIC
# Procedure: as §1
# [7] = tested on: Enterococcus faecium ATCC 700221 (VRE); assay: MIC, Gram-positive panel; conditions: Enterococcus faecium ATCC 700221 (VRE); read-out: MIC
# Procedure: as §1
# [8] = tested on: MRSA NRS 123; assay: MIC, Gram-positive panel; conditions: Staphylococcus aureus; MRSA NRS 123; read-out: MIC
# Procedure: as §1
# [9] = tested on: S. pneumoniae ATCC 51916; assay: MIC, Gram-positive panel; conditions: Streptococcus pneumoniae, ATCC51916; S. pneumoniae ATCC 51916; read-out: MIC
# Procedure: as §1
# [10] = tested on: S. aureus NRS 107; assay: MIC, Gram-positive panel; conditions: Staphylococcus aureus, NRS107; S. aureus NRS 107; read-out: MIC
# Procedure: as §1
# [11] = tested on: MRSA NRS 385; assay: MIC, Gram-positive panel; conditions: Staphylococcus aureus; MRSA NRS 385; read-out: MIC
# Procedure: as §1
# [12] = tested on: VRSA 10; assay: MIC, Gram-positive panel; conditions: Staphylococcus aureus; VRSA 10; read-out: MIC
# Procedure: as §1
# [13] = tested on: MRSA NRS 119; assay: MIC, Gram-positive panel; conditions: Staphylococcus aureus; MRSA NRS 119; read-out: MIC
# Procedure: as §1
# [14] = tested on: Staphylococcus aureus NRS384 (MRSA USA300); assay: Initial MIC screening, broth microdilution (CLSI); conditions: for MIC: Staphylococcus aureus NRS384 (MRSA USA300), broth microdilution, visual reading
# Procedure: Method: The minimum inhibitory concentration (MIC) of the compounds 1-187, and control antibiotics (vancomycin, linezolid) was determined using the broth microdilution method against methicillin-resistant Staphylococcus aureus (MRSA) USA 300 using the broth microdilution method according to the guidelines outlined by the Clinical and Laboratory Standards Institute (CLSI). MRSA strain was cultivated on Tryptic soy agar plates and let grow for 24 hours at 37° C. under aerobic conditions. Bacterial suspension equivalent to 0.5 McFarland standard was prepared and diluted in cation-adjusted Mueller-Hinton broth (CAMHB) to attain a bacterial concentration of 5×10^5 CFU/ml and seeded in 96-well plates. The desired concentrations of each drug and compound were added in the first row of the 96-well plates and serially diluted to achieve a concentration gradient from 64 μg/ml to 0.5 μg/mL.
# [15] = tested on: human keratinocytes cell line (HaCaT cells); assay: In vitro cytotoxicity, MTS assay; conditions: 2 h
# Procedure: Compounds 144, 148, 149, 151, 155, and 158 were assayed (at concentrations of 16, 32, and 64 μg/mL) against a human keratinocytes cell line (HaCaT cells) to determine their in vitro potential toxic effect. Briefly, cells were cultured in Dulbecco's Modified Eagle Medium (DMEM) supplemented with 10% fetal bovine serum (FBS) and penicillin-streptomycin at 37° C. in presence of 5% CO2. Compounds were added in the first row of the 96-well plate. Control cells received DMSO alone at a concentration equivalent to that in drug-treated wells. The cells were incubated with the compounds (in triplicate) in a 96-well plate at 37° C. in presence of 5% CO2 for two hours. The assay reagent MTS 3-(4,5-dimethylthiazol-2-yl)-5-(3-carboxymethoxyphenyl)-2-(4-sulfophenyl)-2H-tetrazolium) (Promega, Madison, Wis., USA) was subsequently added and the plate was incubated for three to four hours. Absorbance readings (at OD490) were recorded using a kinetic microplate reader (Molecular Devices, Sunnyvale, Calif., USA). The quantity of viable cells after treatment with each compound was expressed as a percentage of the viability to DMSO-treated control cells (average of triplicate wells±standard deviation).
# FIG. 2. Analyzing the toxicity of compounds 144, 148, 149, 151, 155 and 158 (tested in triplicates at 16, 32 and 64 μg/mL) against human keratinocytes cells (HaCaT) using the MTS 3-(4,5-dimethylthiazol-2-yl)-5-(3-carboxymethoxyphenyl)-2-(4-sulfophenyl)-2H-tetrazolium) assay. Results are presented as percent viable cells relative to DMSO (negative control to determine a baseline measurement for the cytotoxic impact of each compound). The absorbance values represent an average of three samples analyzed for each compound. Error bars represent standard deviation values. The data were analyzed via a two-way ANOVA with post-hoc Dunnett's test for multiple comparisons. An asterisk (*) denotes statistical significance (P<0.05) between results for compounds and DMSO.
smiles,measurement,setting,value
C=C(C(=O)OC)C(c1cccc2ccccc12)C(O)c1ccccc1 (centres unmarked) [Compound 144],MIC,[1],1 µg/mL
same,MIC,[2],1 µg/mL
same,MIC,[3],1 µg/mL
same,MIC,[4],> 64 µg/mL
same,MIC,[5],1 µg/mL
same,MIC,[6],1 µg/mL
same,MIC,[7],64 µg/mL
same,MIC,[8],1 µg/mL
same,MIC,[9],1 µg/mL
same,MIC,[10],1 µg/mL
same,MIC,[11],1 µg/mL
same,MIC,[12],1 µg/mL
same,MIC,[13],1 µg/mL
same,potency compared with control antibiotic,"[14]; MRSA USA300, Table 1 assay",potency similar to the oxazolidinone class of antimicrobial drug linezolid
same,MIC,[14],1 µg/mL
same,MIC,"[14]; Staphylococcus aureus, read-out: MIC",1 to 2 µg/mL
same,tolerable concentration as multiple of MIC against MRSA,[15],16 to 32 times
